Laboratory results from the CheMixHub viscosity set.
Values joined by “and” are separate entries in the source; they are usually repeats but may differ in a detail not shown here. Equal entries are not always repeated. ± gives the uncertainty stated by the source.

Tests used:
[1] = xn = mol fraction of the nth substance listed

O=C(O)C1CCCCC1
101 kPa
Details	viscosity [mPa·s]
310 K	13.2 ± 0.2
320 K	9.26 ± 0.15

CC(=O)O.OCCNCCO
viscosity [mPa·s]
Details	293.15 K	298.15 K	303.15 K	308.15 K	313.15 K	318.15 K	323.15 K
100 kPa	5750 ± 1200	–	2248 ± 470	–	1003 ± 210	–	491.7 ± 100
101.3 kPa	2115 ± 140	1363 ± 82	905.4 ± 52	617.3 ± 34	431.4 ± 22	308.3 ± 15	225 ± 11

CCCCCCCC/C=C\CCCCCCCC(=O)OCC
viscosity
Details	293.15 K	298.15 K	303.15 K	308.15 K	313.15 K	318.15 K	323.15 K
100 kPa	6.414 ± 0.17 mPa·s	5.653 ± 0.15 mPa·s	4.986 ± 0.14 mPa·s	4.435 ± 0.12 mPa·s and 4.424 ± 0.12 mPa·s	3.919 ± 0.11 mPa·s	3.554 ± 0.097 mPa·s	3.214 ± 0.087 mPa·s
101 kPa	6.413 ± 0.068 mPa·s	5.653 ± 0.06 mPa·s	4.986 ± 0.053 mPa·s	4.424 ± 0.048 mPa·s	3.918 ± 0.042 mPa·s	3.554 ± 0.039 mPa·s	3.214 ± 0.035 mPa·s

CCCC(=O)[O-].[NH3+]CCO
101 kPa
Details	viscosity [mPa·s]
293.15 K	3077 ± 340
298.15 K	2071 ± 240
303.15 K	1434 ± 150
308.15 K	1011 ± 100
313.15 K	733.5 ± 69
318.15 K	539.6 ± 48
323.15 K	397.8 ± 34

CCCOCC(C)OCC(C)O (stereo not given)
101.33 kPa
Details	viscosity [mPa·s]
298.15 K	4.001 ± 0.058
308.15 K	2.986 ± 0.044
318.15 K	2.271 ± 0.034

CN(C)CCCN
viscosity
Details	293.15 K	303.15 K	308.15 K	313.15 K	318.15 K	323.15 K
100 kPa	1.079 ± 0.055 mPa·s	0.8997 ± 0.045 mPa·s	–	0.7611 ± 0.038 mPa·s	–	0.6553 ± 0.033 mPa·s
101 kPa	–	0.941 ± 0.011 mPa·s	0.8773 ± 0.0087 mPa·s and 0.862 ± 0.01 mPa·s	0.8098 ± 0.0078 mPa·s and 0.793 ± 0.01 mPa·s	0.7531 ± 0.0073 mPa·s and 0.731 ± 0.009 mPa·s	0.7013 ± 0.0069 mPa·s and 0.678 ± 0.008 mPa·s

CCCCn1cc[n+](C)c1C.O=S(=O)([N-]S(=O)(=O)C(F)(F)F)C(F)(F)F
101.3 kPa
Details	viscosity [mPa·s]
293.15 K	132.9 ± 3.2
303.15 K	78.56 ± 1.7
308.15 K	62.2 ± 1.3
313.15 K	50.15 ± 1
318.15 K	41.04 ± 0.86
323.15 K	34.04 ± 0.71

CC(C)COCCO
Details	viscosity [mPa·s]
298.15 K, 101 kPa	3.33 ± 0.1

CCCCCCCCCCCCn1cc[n+](C)c1.O=S(=O)([N-]S(=O)(=O)C(F)(F)F)C(F)(F)F
100 kPa
Details	viscosity
298 K	135.9 ± 17 mPa·s and 150.3 ± 17 mPa·s
303 K	102.5 ± 11 mPa·s and 114.4 ± 12 mPa·s
308 K	79.3 ± 8.1 mPa·s and 88.7 ± 8.2 mPa·s
313 K	62.31 ± 6 mPa·s and 70.09 ± 6 mPa·s
318 K	49.81 ± 4.5 mPa·s and 56.18 ± 4.5 mPa·s
323 K	39.98 ± 3.5 mPa·s and 45.26 ± 3.5 mPa·s

CCC(=O)O.CCC(=O)[O-].CC[NH+](CC)CCO
101 kPa
Details	viscosity [mPa·s]
293.15 K	88.32 ± 4.5
298.15 K	66.16 ± 3.4
303.15 K	50.6 ± 2.6
308.15 K	39.4 ± 2
313.15 K	31.21 ± 1.6
318.15 K	25.1 ± 1.3
323.15 K	20.46 ± 1

CC(=O)OCCC(C)C
viscosity
Details	293.15 K	303.15 K	313.15 K
101 kPa	0.86 ± 0.008 mPa·s	0.743 ± 0.011 mPa·s and 0.7175 ± 0.0087 mPa·s and 0.7168 ± 0.0059 mPa·s	0.642 ± 0.011 mPa·s
101.3 kPa	–	0.6997 ± 0.07 mPa·s	–

CCOP(=O)([O-])OCC.CC[N+]1(C)CCCC1
100 kPa
Details	viscosity [mPa·s]
293.15 K	440.8 ± 34
298.15 K	306.8 ± 22
303.15 K	220 ± 16
308.15 K	164.1 ± 11
313.15 K	121.4 ± 8.1
318.15 K	92.72 ± 6.1
323.15 K	72.98 ± 4.8

O=P(O)(O)O + O
[1]
Details	viscosity [mPa·s]
293.15 K, 101 kPa, x1 = 0.404	27.7 ± 1.8
293.15 K, 101 kPa, x1 = 0.441	32.01 ± 2.1
293.15 K, 101 kPa, x1 = 0.504	46.83 ± 3
293.15 K, 101 kPa, x1 = 0.537	54.26 ± 1.3
293.15 K, 101 kPa, x1 = 0.574	64.47 ± 4.6
293.15 K, 101 kPa, x1 = 0.603	69.15 ± 6.2
293.15 K, 101 kPa, x1 = 0.616	75.28 ± 8.5
293.15 K, 101 kPa, x1 = 0.626	79.2 ± 10
298 K, 101.33 kPa, x1 = 0.0038	0.939 ± 0.1
298 K, 101.33 kPa, x1 = 0.007	0.979 ± 0.1
298 K, 101.33 kPa, x1 = 0.014	1.075 ± 0.1
298 K, 101.33 kPa, x1 = 0.0215	1.191 ± 0.1
298 K, 101.33 kPa, x1 = 0.029	1.307 ± 0.1
298 K, 101.33 kPa, x1 = 0.0376	1.457 ± 0.11
298 K, 101.33 kPa, x1 = 0.0462	1.62 ± 0.11
298 K, 101.33 kPa, x1 = 0.0537	1.786 ± 0.11
298 K, 101.33 kPa, x1 = 0.0604	1.955 ± 0.11
298 K, 101.33 kPa, x1 = 0.0714	2.204 ± 0.11
298 K, 101.33 kPa, x1 = 0.0832	2.521 ± 0.11
298 K, 101.33 kPa, x1 = 0.0925	2.842 ± 0.11
298 K, 101.33 kPa, x1 = 0.1	3.033 ± 0.11
298 K, 101.33 kPa, x1 = 0.106	3.198 ± 0.11
298 K, 101.33 kPa, x1 = 0.111	3.378 ± 0.11
298 K, 101.33 kPa, x1 = 0.151	4.902 ± 0.12
298 K, 101.33 kPa, x1 = 0.2128	7.936 ± 0.14
298 K, 101.33 kPa, x1 = 0.2654	11.32 ± 0.15
298 K, 101.33 kPa, x1 = 0.311	14.88 ± 0.17
298 K, 101.33 kPa, x1 = 0.3511	18.8 ± 0.19
298 K, 101.33 kPa, x1 = 0.3871	22.93 ± 0.21
298 K, 101.33 kPa, x1 = 0.422	27.24 ± 0.23
298 K, 101.33 kPa, x1 = 0.4737	35.19 ± 0.26
298 K, 101.33 kPa, x1 = 0.5388	46.3 ± 0.3
298 K, 101.33 kPa, x1 = 0.6043	59.76 ± 0.32
298.15 K, 100 kPa, x2 = 0.333	70.64 ± 2.9
298.15 K, 101 kPa, x1 = 0.0018	0.9162 ± 0.092
298.15 K, 101 kPa, x1 = 0.0054	0.9543 ± 0.096
298.15 K, 101 kPa, x1 = 0.0089	1 ± 0.1
298.15 K, 101 kPa, x1 = 0.012	1.054 ± 0.11
298.15 K, 101 kPa, x1 = 0.016	1.089 ± 0.11
298.15 K, 101 kPa, x1 = 0.404	24.33 ± 1.6
298.15 K, 101 kPa, x1 = 0.441	27.61 ± 1.8
298.15 K, 101 kPa, x1 = 0.504	37.59 ± 2.5
298.15 K, 101 kPa, x1 = 0.537	43.17 ± 2.8
298.15 K, 101 kPa, x1 = 0.574	50.35 ± 0.3
298.15 K, 101 kPa, x1 = 0.603	54.12 ± 1.2
298.15 K, 101 kPa, x1 = 0.616	60.3 ± 3.2
298.15 K, 101 kPa, x1 = 0.626	64.75 ± 4.6
303.15 K, 100 kPa, x2 = 0.333	55.6 ± 2.3
303.15 K, 101 kPa, x1 = 0.0018	0.8163 ± 0.082
303.15 K, 101 kPa, x1 = 0.0054	0.8526 ± 0.086
303.15 K, 101 kPa, x1 = 0.0089	0.8928 ± 0.089
303.15 K, 101 kPa, x1 = 0.012	0.9281 ± 0.093
303.15 K, 101 kPa, x1 = 0.016	0.9679 ± 0.097
303.15 K, 101 kPa, x1 = 0.404	20.3 ± 1.4
303.15 K, 101 kPa, x1 = 0.441	23.66 ± 1.6
303.15 K, 101 kPa, x1 = 0.504	30.35 ± 2
303.15 K, 101 kPa, x1 = 0.537	34.61 ± 2.3
303.15 K, 101 kPa, x1 = 0.574	38.68 ± 2.5
303.15 K, 101 kPa, x1 = 0.603	43.03 ± 2.8
303.15 K, 101 kPa, x1 = 0.616	46.81 ± 3
303.15 K, 101 kPa, x1 = 0.626	52.57 ± 0.79
308.15 K, 100 kPa, x2 = 0.333	46.73 ± 1.9
308.15 K, 101 kPa, x1 = 0.0018	0.7331 ± 0.073
308.15 K, 101 kPa, x1 = 0.0054	0.763 ± 0.076
308.15 K, 101 kPa, x1 = 0.0089	0.794 ± 0.08
308.15 K, 101 kPa, x1 = 0.012	0.84 ± 0.084
308.15 K, 101 kPa, x1 = 0.016	0.8774 ± 0.088
308.15 K, 101 kPa, x1 = 0.404	17.53 ± 1.2
308.15 K, 101 kPa, x1 = 0.441	19.85 ± 1.4
308.15 K, 101 kPa, x1 = 0.504	24.19 ± 1.6
308.15 K, 101 kPa, x1 = 0.537	27.64 ± 1.8
308.15 K, 101 kPa, x1 = 0.574	31.89 ± 2.1
308.15 K, 101 kPa, x1 = 0.603	33.9 ± 2.2
308.15 K, 101 kPa, x1 = 0.616	37.64 ± 2.5
308.15 K, 101 kPa, x1 = 0.626	41.08 ± 2.7
313.15 K, 100 kPa, x2 = 0.333	39.76 ± 1.6
313.15 K, 101 kPa, x1 = 0.404	14.63 ± 1
313.15 K, 101 kPa, x1 = 0.441	17.7 ± 1.2
313.15 K, 101 kPa, x1 = 0.504	21.48 ± 1.5
313.15 K, 101 kPa, x1 = 0.537	22.64 ± 1.5
313.15 K, 101 kPa, x1 = 0.574	25.3 ± 1.7
313.15 K, 101 kPa, x1 = 0.603	27.25 ± 1.8
313.15 K, 101 kPa, x1 = 0.616	29.46 ± 2
313.15 K, 101 kPa, x1 = 0.626	32.1 ± 2.1
318.15 K, 100 kPa, x2 = 0.333	32.46 ± 1.3
323.15 K, 100 kPa, x2 = 0.333	27.57 ± 1.1

C[NH+](C)C.[Cl-] + CC(=O)CCC(=O)O
[1], 101 kPa, x2 = 0.75
Details	viscosity [mPa·s]
293.15 K	74.02 ± 3.1
303.15 K	42.25 ± 1.8
313.15 K	25.57 ± 1.1
323.15 K	17.71 ± 0.73

CC(=O)OCCC(C)C + CCCCOC(C)=O
viscosity [mPa·s], [1], 101 kPa
Details	x1 = 0.2	x1 = 0.4	x1 = 0.6	x1 = 0.8
293.15 K	0.75 ± 0.007	0.776 ± 0.008	0.802 ± 0.008	0.831 ± 0.008
313.15 K	0.575 ± 0.006	0.592 ± 0.006	0.611 ± 0.006	0.629 ± 0.006

CCOP(OCC)OCC
Details	viscosity [mPa·s]
298.15 K, 101 kPa	0.698 ± 0.012

CCOP(OCC)OCC + CC#N
[1], 298.15 K, 101 kPa
Details	viscosity [mPa·s]
x1 = 0.2	0.452 ± 0.005
x1 = 0.4	0.512 ± 0.007
x1 = 0.6	0.573 ± 0.008
x1 = 0.8	0.642 ± 0.01
